Earlier results as cited in US12280031B2, “Teriflunomide topical pharmaceutical compositions” (APRAMITHA INNOVATIONS PRIVATE LIMITED, priority 2018, dated 2025).

Key:
patients = settings: oral teriflunomide, dose-dependent

pKa: 5.2
solubility in water (water): very slightly soluble
SMILES: C/C(O)=C(\C#N)C(=O)Nc1ccc(C(F)(F)F)cc1 [Teriflunomide, (Z)-2-cyano-3-hydroxy-but-2-enoic acid-(4′-trifluoromethylphenyl)-amide]
adverse effects (patients): nausea, diarrhoea, hair thinning/decreased hair density, and elevated alanine aminotransferase (ALT) levels
